Earlier results as cited in patent publication EP3051247B1, “CHEMICAL CLEANING PROCEDURE FOR HEAT EXCHANGERS” (GD Energy Services S.a.r.l., priority 2013, dated 2015).

Settings: for pKa1: first acid dissociation step (AH3 → AH2^- + H^+; BH2 → BH^- + H^+); for pKa2: second acid dissociation step (AH2^- → AH^2- + H^+; BH^- → B^2- + H^+)

pKa1 | pKa2 | pKa3 (third acid dissociation step (AH^2- → A^3- + H^+)) | SMILES
pKa1 = 4.1 | pKa2 = 11.4 | – | O=C1O[C@H]([C@@H](O)CO)C(O)=C1O [Ascorbic acid]
pKa1 = 3.15 | pKa2 = 4.77 | pKa3 = 6.40 | O=C(O)CC(O)(CC(=O)O)C(=O)O [Citric acid]
